Laboratory results taken from PubChem BioAssay (NCI).
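Values below derive from 48-hour exposures of cells grown in 96-well plates, with endpoints linearly interpolated between the two concentrations bracketing the appropriate inhibition level. Here, GI50 denotes the concentration required for 50% inhibition of growth. TGI denotes the concentration required for complete inhibition of growth.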

How the values were obtained:
Assay in all cases: growth of human tumour cells (NCI), 48 h
KM12 colon = tested on: KM12 colon
RXF 393 renal = tested on: RXF 393 renal
HOP-62 NSCLC = tested on: HOP-62 NSCLC
SR leukemia = tested on: SR leukemia
HL-60(TB) leukemia = tested on: HL-60(TB) leukemia
U251 CNS = tested on: U251 CNS
SW-620 colon = tested on: SW-620 colon
HCC-2998 colon = tested on: HCC-2998 colon
COLO 205 colon = tested on: COLO 205 colon
NCI-H23 lung = tested on: NCI-H23 lung
SK-MEL-5 melanoma = tested on: SK-MEL-5 melanoma
MOLT-4 leukemia = tested on: MOLT-4 leukemia
A498 renal = tested on: A498 renal
M14 melanoma = tested on: M14 melanoma
LOX IMVI melanoma = tested on: LOX IMVI melanoma
SK-OV-3 ovarian = tested on: SK-OV-3 ovarian
NCI-H460 lung = tested on: NCI-H460 lung
OVCAR-5 ovarian = tested on: OVCAR-5 ovarian
RPMI-8226 leukemia = tested on: RPMI-8226 leukemia
PC-3 prostate = tested on: PC-3 prostate
OVCAR-3 ovarian = tested on: OVCAR-3 ovarian
NCI/ADR-RES ovarian = tested on: NCI/ADR-RES ovarian
HCT-15 colon = tested on: HCT-15 colon
A549 NSCLC = tested on: A549 NSCLC
DU-145 prostate = tested on: DU-145 prostate
NCI-H226 lung = tested on: NCI-H226 lung
MCF7 breast = tested on: MCF7 breast
SNB-19 CNS = tested on: SNB-19 CNS
UO-31 renal = tested on: UO-31 renal
EKVX NSCLC = tested on: EKVX NSCLC
HCT-116 colon = tested on: HCT-116 colon
SF-295 CNS = tested on: SF-295 CNS
HOP-92 NSCLC = tested on: HOP-92 NSCLC
OVCAR-4 ovarian = tested on: OVCAR-4 ovarian
UACC-62 melanoma = tested on: UACC-62 melanoma
TK-10 renal = tested on: TK-10 renal
T-47D breast = tested on: T-47D breast
SK-MEL-2 melanoma = tested on: SK-MEL-2 melanoma
SF-539 CNS = tested on: SF-539 CNS
786-0 renal = tested on: 786-0 renal
HT29 colon = tested on: HT29 colon
ACHN renal = tested on: ACHN renal
MDA-MB-435 = tested on: MDA-MB-435
MALME-3M melanoma = tested on: MALME-3M melanoma
CAKI-1 renal = tested on: CAKI-1 renal
BT-549 breast = tested on: BT-549 breast
SNB-75 CNS = tested on: SNB-75 CNS
K-562 leukemia = tested on: K-562 leukemia
SK-MEL-28 melanoma = tested on: SK-MEL-28 melanoma
MDA-MB-231 breast = tested on: MDA-MB-231 breast
OVCAR-8 ovarian = tested on: OVCAR-8 ovarian
UACC-257 melanoma = tested on: UACC-257 melanoma
SN12C renal = tested on: SN12C renal
SF-268 CNS = tested on: SF-268 CNS
IGROV1 ovarian = tested on: IGROV1 ovarian
NCI-H522 lung = tested on: NCI-H522 lung
CCRF-CEM leukemia = tested on: CCRF-CEM leukemia

COc1ccc(-c2cc(-c3ccc(Nc4ccnc5cc(C(F)(F)F)ccc45)cc3)nc(N)c2C#N)cc1
TGI (KM12 colon): > 100 µM | TGI (RXF 393 renal): > 100 µM | TGI (HOP-62 NSCLC): > 100 µM | TGI (SR leukemia): > 100 µM | TGI (HL-60(TB) leukemia): > 100 µM | TGI (U251 CNS): > 100 µM | TGI (SW-620 colon): > 100 µM | TGI (HCC-2998 colon): > 100 µM | TGI (COLO 205 colon): > 100 µM | TGI (NCI-H23 lung): > 100 µM | TGI (SK-MEL-5 melanoma): > 100 µM | TGI (MOLT-4 leukemia): > 100 µM | TGI (A498 renal): > 100 µM | TGI (M14 melanoma): > 100 µM | TGI (LOX IMVI melanoma): > 100 µM | TGI (SK-OV-3 ovarian): > 100 µM | TGI (NCI-H460 lung): > 100 µM | TGI (OVCAR-5 ovarian): > 100 µM | TGI (RPMI-8226 leukemia): > 100 µM | TGI (PC-3 prostate): > 100 µM | TGI (OVCAR-3 ovarian): 33.7 µM | TGI (NCI/ADR-RES ovarian): > 100 µM | TGI (HCT-15 colon): > 100 µM | TGI (A549 NSCLC): > 100 µM | TGI (DU-145 prostate): > 100 µM | TGI (NCI-H226 lung): > 100 µM | TGI (MCF7 breast): > 100 µM | TGI (SNB-19 CNS): > 100 µM | TGI (UO-31 renal): > 100 µM | TGI (EKVX NSCLC): > 100 µM | TGI (HCT-116 colon): 78.7 µM | TGI (SF-295 CNS): > 100 µM | TGI (HOP-92 NSCLC): 90 µM | TGI (OVCAR-4 ovarian): > 100 µM | TGI (UACC-62 melanoma): > 100 µM | TGI (TK-10 renal): > 100 µM | TGI (T-47D breast): > 100 µM | TGI (SK-MEL-2 melanoma): > 100 µM | TGI (SF-539 CNS): > 100 µM | TGI (786-0 renal): > 100 µM | TGI (HT29 colon): > 100 µM | TGI (ACHN renal): > 100 µM | TGI (MDA-MB-435): > 100 µM | TGI (MALME-3M melanoma): > 100 µM | TGI (CAKI-1 renal): > 100 µM | TGI (BT-549 breast): > 100 µM | TGI (SNB-75 CNS): 71.6 µM | TGI (K-562 leukemia): > 100 µM | TGI (SK-MEL-28 melanoma): > 100 µM | TGI (MDA-MB-231 breast): > 100 µM

C[C@]12CCC3c4ccc(O)cc4CCC3C1CC[C@@]2(O)C#Cc1ccc(C#C/C=C\C#Cc2ccccc2N)cc1 (stereo partly drawn)
GI50 (KM12 colon): 9.66 µM | TGI (KM12 colon): > 100 µM | GI50 (RXF 393 renal): 36.3 µM | TGI (RXF 393 renal): > 100 µM | GI50 (HOP-62 NSCLC): 28.7 µM | TGI (HOP-62 NSCLC): 70 µM | GI50 (SR leukemia): > 100 µM | TGI (SR leukemia): > 100 µM | GI50 (HL-60(TB) leukemia): 26.7 µM | TGI (HL-60(TB) leukemia): > 100 µM | GI50 (U251 CNS): 19 µM | TGI (U251 CNS): 80.4 µM | GI50 (SW-620 colon): 40 µM | TGI (SW-620 colon): > 100 µM | GI50 (HCC-2998 colon): 25.6 µM | TGI (HCC-2998 colon): 54.5 µM | GI50 (NCI-H23 lung): 26.5 µM | TGI (NCI-H23 lung): > 100 µM | GI50 (SK-MEL-5 melanoma): 17.9 µM | TGI (SK-MEL-5 melanoma): 41 µM | GI50 (MOLT-4 leukemia): 57.5 µM | TGI (MOLT-4 leukemia): > 100 µM | GI50 (A498 renal): 21.7 µM | TGI (A498 renal): 41 µM | GI50 (M14 melanoma): 29.5 µM | TGI (M14 melanoma): > 100 µM | GI50 (LOX IMVI melanoma): 35.8 µM | TGI (LOX IMVI melanoma): > 100 µM | GI50 (OVCAR-8 ovarian): 47.4 µM | TGI (OVCAR-8 ovarian): > 100 µM | GI50 (SK-OV-3 ovarian): 39.7 µM | TGI (SK-OV-3 ovarian): > 100 µM | GI50 (NCI-H460 lung): 12.6 µM | TGI (NCI-H460 lung): > 100 µM | GI50 (UACC-257 melanoma): 28.7 µM | TGI (UACC-257 melanoma): > 100 µM | GI50 (OVCAR-5 ovarian): 38.4 µM | TGI (OVCAR-5 ovarian): > 100 µM | GI50 (RPMI-8226 leukemia): 7.56 µM | TGI (RPMI-8226 leukemia): 79.7 µM | GI50 (PC-3 prostate): 15.6 µM | TGI (PC-3 prostate): 55.3 µM | GI50 (OVCAR-3 ovarian): 13.8 µM | TGI (OVCAR-3 ovarian): 48 µM | GI50 (SN12C renal): 21.7 µM | TGI (SN12C renal): 61.1 µM | GI50 (NCI/ADR-RES ovarian): 17.7 µM | TGI (NCI/ADR-RES ovarian): 52.2 µM | GI50 (SF-268 CNS): 24.8 µM | TGI (SF-268 CNS): > 100 µM | GI50 (HCT-15 colon): 22.2 µM | TGI (HCT-15 colon): > 100 µM | GI50 (A549 NSCLC): 32.9 µM | TGI (A549 NSCLC): > 100 µM | GI50 (DU-145 prostate): 23.9 µM | TGI (DU-145 prostate): > 100 µM | GI50 (NCI-H226 lung): 20.2 µM | TGI (NCI-H226 lung): 48.2 µM | GI50 (MCF7 breast): 308 nM | TGI (MCF7 breast): > 100 µM | GI50 (IGROV1 ovarian): 87.1 µM | TGI (IGROV1 ovarian): > 100 µM | GI50 (UO-31 renal): 15.9 µM | TGI (UO-31 renal): 85.1 µM | GI50 (EKVX NSCLC): 20.3 µM | TGI (EKVX NSCLC): 65.5 µM | GI50 (HCT-116 colon): 12.3 µM | TGI (HCT-116 colon): > 100 µM | GI50 (SF-295 CNS): 17.1 µM | TGI (SF-295 CNS): > 100 µM | GI50 (HOP-92 NSCLC): 16 µM | TGI (HOP-92 NSCLC): 46.5 µM | GI50 (NCI-H522 lung): 17 µM | TGI (NCI-H522 lung): > 100 µM | GI50 (OVCAR-4 ovarian): 23.6 µM | TGI (OVCAR-4 ovarian): > 100 µM | GI50 (UACC-62 melanoma): 15.2 µM | TGI (UACC-62 melanoma): 41.2 µM | GI50 (TK-10 renal): 36.6 µM | TGI (TK-10 renal): > 100 µM | GI50 (T-47D breast): > 100 µM | TGI (T-47D breast): > 100 µM | GI50 (CCRF-CEM leukemia): > 100 µM | TGI (CCRF-CEM leukemia): > 100 µM | GI50 (SK-MEL-2 melanoma): 42.2 µM | TGI (SK-MEL-2 melanoma): > 100 µM | GI50 (SF-539 CNS): 21.3 µM | TGI (SF-539 CNS): 52.6 µM | GI50 (786-0 renal): 20.5 µM | TGI (786-0 renal): 57.5 µM | GI50 (HT29 colon): 25.8 µM | TGI (HT29 colon): > 100 µM | GI50 (ACHN renal): 17.8 µM | TGI (ACHN renal): 43.6 µM | GI50 (MDA-MB-435): 31.7 µM | TGI (MDA-MB-435): > 100 µM | GI50 (MALME-3M melanoma): 17.2 µM | TGI (MALME-3M melanoma): 48.1 µM | GI50 (CAKI-1 renal): 20.6 µM | TGI (CAKI-1 renal): 68.6 µM | GI50 (BT-549 breast): 19.2 µM | TGI (BT-549 breast): 45.1 µM | GI50 (SNB-75 CNS): > 100 µM | TGI (SNB-75 CNS): > 100 µM | GI50 (K-562 leukemia): 12.4 µM | TGI (K-562 leukemia): 86.5 µM | GI50 (MDA-MB-231 breast): 21 µM | TGI (MDA-MB-231 breast): 53.5 µM
